Source: patent US20100168421A1, “A NEW PEPTIDE DEFORMYLASE INHIBITOR COMPOUND AND MANUFACTURING PROCESS THEREOF” (priority 2007, published 2010)
Values after ≈ are worked out from the molar mass of the structure shown. Read-outs that look alike come from different tables or passages of the source.

Legend:
PDF enzyme [1] = target: T1, PDF enzyme (Streptococcus pneumoniae serotype 4, UniProt Q9F2F0); experiment: PDF/FDH coupled enzyme assay, Streptococcus Pneumoniae; type: biochemical; details: substrate fMAS, absorption at 340 nm
T1 sequence (Q9F2F0 1-203): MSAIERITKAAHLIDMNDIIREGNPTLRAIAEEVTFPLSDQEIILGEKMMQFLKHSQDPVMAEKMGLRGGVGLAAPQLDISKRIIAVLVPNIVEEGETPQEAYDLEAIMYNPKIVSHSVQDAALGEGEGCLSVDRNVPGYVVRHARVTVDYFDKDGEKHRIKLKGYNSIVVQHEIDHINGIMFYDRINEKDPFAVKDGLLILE

PDF enzyme [2] = target: PDF enzyme (Streptococcus pyogenes serotype M1, UniProt P68771); experiment: PDF/FDH coupled enzyme assay, Streptococcus pyogenes; type: biochemical
PDF enzyme [3] = target: PDF enzyme (Escherichia coli, UniProt P0A6K3); experiment: PDF/FDH coupled enzyme assay, E. coli; type: biochemical
Method: Activities of PDF enzyme for E. coli and S. aureus were determined using PDF/FDH coupled assay. In this coupled assay, the formate released by PDF from its substrate formyl-Methionine-Alanine-Serine (fMAS) is oxidized by coupling enzyme formate dehydrogenase (FDH), reducing one molecule of NAD^+ to NADH, which is measured absorption at 340 nm.

[4] = tested on: Streptococcus Pneumoniae Pen S; experiment: MIC microdilution, S. Pneumoniae Pen S; type: cell-based; details: read-out: MIC Streptococcus Pneumoniae Pen S
Method: (§1) Minimum inhibitory concentrations (MICs) were determined using the microdilution method in 96-well format plates. Each of the compounds of Examples was dissolved in dimethyl sulfoxide to a concentration of 2 mg/mL and stored at 4° C. until used. They were diluted in Mueller-Hinton Broth (MHB) and used for MIC determination. The range of concentrations tested was […] final concentration using a two-fold dilution system. Plates were incubated at 37° C. and MIC were recorded after 24 hours of incubation for bacteria.
(§2) Linezolid and vancomycin were used as standard antibiotics, respectively.

Streptococcus pyogenes = experiment: MIC microdilution, S. pyogenes; type: cell-based; details: read-out: MIC Streptococcus pyogenes
Method: as §1, §2

[5] = tested on: Vancomycin-resistant Enterococcus faecium; experiment: MIC microdilution, VR E. faecium; type: cell-based; details: read-out: MIC Vancomycin-resistant Enterococcus faecium
Method: as §1, §2

[6] = tested on: Vancomycin-resistant Enterococcus faecalis; experiment: MIC microdilution, VR E. faecalis; type: cell-based; details: read-out: MIC Vancomycin-resistant Enterococcus faecalis
Method: as §1, §2

[7] = tested on: Streptococcus Pneumoniae Pen NS; experiment: MIC microdilution, S. Pneumoniae Pen NS; type: cell-based; details: read-out: MIC Streptococcus Pneumoniae Pen NS
Method: as §1, §2

[8] = microdilution, Mueller-Hinton Broth, 37° C., 24 hours

Chain of PDF enzyme (Streptococcus pyogenes serotype M1, UniProt P68771) (P68771 whole entry): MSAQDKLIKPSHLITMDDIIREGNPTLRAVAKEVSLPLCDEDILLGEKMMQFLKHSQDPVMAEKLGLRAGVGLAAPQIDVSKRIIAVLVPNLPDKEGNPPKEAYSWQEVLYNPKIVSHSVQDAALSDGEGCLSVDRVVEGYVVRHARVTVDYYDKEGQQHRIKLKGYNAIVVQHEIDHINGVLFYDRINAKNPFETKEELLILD
Chain of PDF enzyme (Escherichia coli, UniProt P0A6K3) (P0A6K3 whole entry): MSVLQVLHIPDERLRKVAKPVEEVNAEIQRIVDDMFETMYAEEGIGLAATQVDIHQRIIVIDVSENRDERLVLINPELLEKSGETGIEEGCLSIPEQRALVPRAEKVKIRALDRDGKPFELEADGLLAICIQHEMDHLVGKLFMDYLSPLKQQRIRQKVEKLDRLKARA

| SMILES | IC50 (PDF enzyme [1]) | IC50 (PDF enzyme [2]) | IC50 (PDF enzyme [3]) | MIC [4, 8] | MIC (Streptococcus pyogenes; [8]) | MIC [5, 8] | MIC [6, 8] | MIC [7, 8] | MIC ([4]; 24 h) | MIC (Streptococcus pyogenes; 24 h) | MIC ([5]; 24 h) | MIC ([6]; 24 h) | MIC ([7]; 24 h) |
| --- | --- | --- | --- | --- | --- | --- | --- | --- | --- | --- | --- | --- | --- |
| Cc1ccc(CNC2CCN(C(=O)[C@@H](NC(=O)[C@@H](CC(=O)NO)CC3CCCC3)C(C)(C)C)CC2)cc1 [Example 1, (R)-2-Cyclopentylmethyl-N^1-{(S)-2,2-dimethyl-1-[4-(4-methyl-benzylamino)-piperidine-1-carbonyl]-propyl}-N^4-hydroxy-succinamide] | 65 nM | 70 nM | 150 nM | – | – | – | – | – | – | – | – | – | – |
| CC(C)(C)[C@H](NC(=O)[C@H](CC1CCCC1)CN(O)C=O)C(=O)N1CCC(NCc2ccc(C#N)cc2)CC1 [Example 3, (R)-N-{(S)-1-[4-(4-Cyano-benzylamino)-piperidine-1-carbonyl]-2,2-dimethyl-propyl}-2-cyclopentylmethyl-3-(formyl-hydroxy-amino)-propionamide] | – | – | – | 0.1 µg/mL (≈ 0.19 µM) | 0.2 µg/mL (≈ 0.38 µM) | 0.4 µg/mL (≈ 0.761 µM) | 0.8 µg/mL (≈ 1.52 µM) | 0.4 µg/mL (≈ 0.761 µM) | – | – | – | – | – |
| CC(C)(C)[C@H](NC(=O)[C@H](CC1CCCC1)CN(O)C=O)C(=O)N1CCC(NCc2ccc(F)cc2)CC1 [Example 4, (R)-2-Cyclopentylmethyl-N-{(S)-1-[4-(4-fluoro-benzylamino)-piperidine-1-carbonyl]-2,2-dimethyl-propyl}-3-(formyl-hydroxy-amino)-propionamide] | – | – | – | 0.2 µg/mL (≈ 0.386 µM) | 0.4 µg/mL (≈ 0.771 µM) | 0.4 µg/mL (≈ 0.771 µM) | 3.1 µg/mL (≈ 5.98 µM) | 0.4 µg/mL (≈ 0.771 µM) | – | – | – | – | – |
| COC(=O)c1ccc(CNC2CCN(C(=O)[C@@H](NC(=O)[C@H](CC3CCCC3)CN(O)C=O)C(C)(C)C)CC2)cc1 [Example 7, 4-[(1-{(S)-2-[(R)-2-Cyclopentylmethyl-3-(formyl-hydroxy-amino)-propionylamino]-3,3-dimethyl-butyryl}-piperidin-4-ylamino)-methyl]-benzoic acid methyl ester] | – | – | – | 0.4 µg/mL (≈ 0.716 µM) | 0.8 µg/mL (≈ 1.43 µM) | 3.1 µg/mL (≈ 5.55 µM) | 6.3 µg/mL (≈ 11.3 µM) | 1.6 µg/mL (≈ 2.86 µM) | – | – | – | – | – |
| CC(C)(C)[C@H](NC(=O)[C@H](CC1CCCC1)CN(O)C=O)C(=O)N1CCC(NCc2ccccn2)CC1 [Example 9, (R)-2-Cyclopentylmethyl-N-((S)-2,2-dimethyl-1-{4-[(pyridine-2-ylmethyl)-amino]-piperidine-1-carbonyl}-propyl)-3-(formyl-hydroxy-amino)-propionamide] | – | – | – | 1.6 µg/mL (≈ 3.19 µM) | 0.8 µg/mL (≈ 1.59 µM) | 12.5 µg/mL (≈ 24.9 µM) | 12.5 µg/mL (≈ 24.9 µM) | 1.6 µg/mL (≈ 3.19 µM) | – | – | – | – | – |
| CC(C)(C)[C@H](NC(=O)[C@H](CC1CCCC1)CN(O)C=O)C(=O)N1CCC(NCc2ccc(F)cc2F)CC1 [Example 10, (R)-2-Cyclopentylmethyl-N-{(S)-1-[4-(2,4-difluoro-benzylamino)-piperidine-1-carbonyl]-2,2-dimethyl-propyl}-3-(formyl-hydroxy-amino)-propionamide] | 55 nM | 83 nM | 122 nM | – | – | – | – | – | – | – | – | – | – |
| COc1ccc(CNC2CCN(C(=O)[C@@H](NC(=O)[C@H](CC3CCCC3)CN(O)C=O)C(C)(C)C)CC2)c(OC)c1 [Example 12, (R)-2-Cyclopentylmethyl-N-{(S)-1-[4-(2,4-dimethoxy-benzylamino)-piperidine-1-carbonyl]-2,2-dimethyl-propyl}-3-(formyl-hydroxy-amino)-propionamide] | – | – | – | 0.2 µg/mL (≈ 0.357 µM) | 0.2 µg/mL (≈ 0.357 µM) | 3.1 µg/mL (≈ 5.53 µM) | 6.3 µg/mL (≈ 11.2 µM) | 0.8 µg/mL (≈ 1.43 µM) | – | – | – | – | – |
| CC(C)(C)[C@H](NC(=O)[C@H](CC1CCCC1)CN(O)C=O)C(=O)N1CCC(NCc2cc(F)c(F)cc2F)CC1 [Example 14, (R)-2-Cyclopentylmethyl-N-{(S)-2,2-dimethyl-1-[4-(2,4,5-trifluoro-benzylamino)-piperidine-1-carbonyl]-propyl}-3-(formyl-hydroxy-amino)-propionamide] | – | – | – | 0.1 µg/mL (≈ 0.18 µM) | 0.1 µg/mL (≈ 0.18 µM) | 0.2 µg/mL (≈ 0.361 µM) | 1.6 µg/mL (≈ 2.88 µM) | 0.4 µg/mL (≈ 0.721 µM) | – | – | – | – | – |
| CC(C)(C)[C@H](NC(=O)[C@H](CC1CCCC1)CN(O)C=O)C(=O)N1CCC(Nc2ccccc2)CC1 [Example 15, (R)-2-Cyclopentylmethyl-N-[(S)-2,2-dimethyl-1-(4-phenylamino-piperidine-1-carbonyl)-propyl]-3-(formyl-hydroxy-amino)-propionamide] | – | – | – | – | – | – | – | – | 0.1 µg/mL (≈ 0.205 µM) | 0.1 µg/mL (≈ 0.205 µM) | 0.4 µg/mL (≈ 0.822 µM) | 1.6 µg/mL (≈ 3.29 µM) | 0.4 µg/mL (≈ 0.822 µM) |
| CC(C)(C)[C@H](NC(=O)[C@H](CC1CCCC1)CN(O)C=O)C(=O)N1CCC(Nc2ccc(C#N)cc2)CC1 [Example 16, (R)-N-{(S)-1-[4-(4-Cyano-phenylamino)-piperidine-1-carbonyl]-2,2-dimethyl-propyl}-2-cyclopentylmethyl-3-(formyl-hydroxy-amino)-propionamide] | – | – | – | 0.1 µg/mL (≈ 0.195 µM) | 0.1 µg/mL (≈ 0.195 µM) | 0.4 µg/mL (≈ 0.782 µM) | 3.1 µg/mL (≈ 6.06 µM) | 1.6 µg/mL (≈ 3.13 µM) | – | – | – | – | – |
| Cc1ccc(NC2CCN(C(=O)[C@@H](NC(=O)[C@H](CC3CCCC3)CN(O)C=O)C(C)(C)C)CC2)cc1 [Example 18, (R)-2-Cyclopentylmethyl-N-[(S)-2,2-dimethyl-1-(4-p-tolylamino-piperidine-1-carbonyl)-propyl]-3-(formyl-hydroxy-amino)-propionamide] | – | – | – | 0.2 µg/mL (≈ 0.399 µM) | 0.1 µg/mL (≈ 0.2 µM) | 0.4 µg/mL (≈ 0.799 µM) | 3.1 µg/mL (≈ 6.19 µM) | 0.4 µg/mL (≈ 0.799 µM) | – | – | – | – | – |
| COc1ccc(NC2CCN(C(=O)[C@@H](NC(=O)[C@H](CC3CCCC3)CN(O)C=O)C(C)(C)C)CC2)cc1 [Example 19, (R)-2-Cyclopentylmethyl-3-(formyl-hydroxy-amino)-N-{(S)-1-[4-(4-methoxy-phenylamino)-piperidine-1-carbonyl]-2,2-dimethyl-propyl}-propionamide] | – | – | – | 0.4 µg/mL (≈ 0.774 µM) | 0.2 µg/mL (≈ 0.387 µM) | 1.6 µg/mL (≈ 3.1 µM) | 3.1 µg/mL (≈ 6 µM) | 0.2 µg/mL (≈ 0.387 µM) | – | – | – | – | – |
| COC(=O)c1ccc(NC2CCN(C(=O)[C@@H](NC(=O)[C@H](CC3CCCC3)CN(O)C=O)C(C)(C)C)CC2)cc1 [Example 21, 4-(1-[(S)-2-[(R)-2-Cyclopentylmethyl-3-(formyl-hydroxy-amino)-propionylamino]-3,3-dimethyl-butyryl]-piperidin-4-ylamino)-benzoic acid methyl ester] | – | – | – | 0.2 µg/mL (≈ 0.367 µM) | 0.4 µg/mL (≈ 0.734 µM) | 1.6 µg/mL (≈ 2.94 µM) | 6.3 µg/mL (≈ 11.6 µM) | 0.8 µg/mL (≈ 1.47 µM) | – | – | – | – | – |
| CC(C)(C)[C@H](NC(=O)[C@H](CC1CCCC1)CN(O)C=O)C(=O)N1CCC(Nc2ccc(F)cc2F)CC1 [Example 23, (R)-2-Cyclopentylmethyl-N-{(S)-1-[4-(2,4-difluoro-phenylamino)-piperidine-1-carbonyl]-2,2-dimethyl-propyl}-3-(formyl-hydroxy-amino)-propionamide] | – | – | – | – | – | – | – | – | 0.05 µg/mL (≈ 0.0957 µM) | 0.1 µg/mL (≈ 0.191 µM) | 0.2 µg/mL (≈ 0.383 µM) | 3.1 µg/mL (≈ 5.93 µM) | 0.2 µg/mL (≈ 0.383 µM) |
| COc1ccc(NC2CCN(C(=O)[C@@H](NC(=O)[C@H](CC3CCCC3)CN(O)C=O)C(C)(C)C)CC2)c(OC)c1 [Example 24, (R)-2-Cyclopentylmethyl-N-{(S)-1-[4-(2,4-dimethoxy-phenylamino)-piperidine-1-carbonyl]-2,2-dimethyl-propyl}-3-(formyl-hydroxy-amino)-propionamide] | – | – | – | 0.2 µg/mL (≈ 0.366 µM) | 0.1 µg/mL (≈ 0.183 µM) | 0.8 µg/mL (≈ 1.46 µM) | 6.3 µg/mL (≈ 11.5 µM) | 0.4 µg/mL (≈ 0.732 µM) | – | – | – | – | – |
| CC(C)(C)[C@H](NC(=O)[C@H](CC1CCCC1)CN(O)C=O)C(=O)N1CCC(Nc2ccc(N3CCOCC3)c(F)c2)CC1 [Example 25, (R)-2-Cyclopentylmethyl-N-{(S)-1-[4-(3-fluoro-4-morpholin-4-yl-phenylamino)-piperidine-1-carbonyl]-2,2-dimethyl-propyl}-3-(formyl-hydroxy-amino)-propionamide] | – | – | – | 0.4 µg/mL (≈ 0.678 µM) | 0.8 µg/mL (≈ 1.36 µM) | 3.1 µg/mL (≈ 5.26 µM) | 12.5 µg/mL (≈ 21.2 µM) | 1.6 µg/mL (≈ 2.71 µM) | – | – | – | – | – |
| CC(=O)NC[C@H]1CN(c2ccc(N3CCOCC3)c(F)c2)C(=O)O1 [Linezolid, reference compound] | – | – | – | 0.8 µg/mL (≈ 2.37 µM) | 0.8 µg/mL (≈ 2.37 µM) | 1.6 µg/mL (≈ 4.74 µM) | 0.8 µg/mL (≈ 2.37 µM) | 0.8 µg/mL (≈ 2.37 µM) | – | – | – | – | – |
| CN[C@H](CC(C)C)C(=O)N[C@H]1C(=O)N[C@@H](CC(N)=O)C(=O)N[C@H]2C(=O)N[C@H]3C(=O)N[C@H](C(=O)N[C@H](C(=O)O)c4cc(O)cc(O)c4-c4cc3ccc4O)[C@H](O)c3ccc(c(Cl)c3)Oc3cc2cc(c3O[C@@H]2O[C@H](CO)[C@@H](O)[C@H](O)[C@H]2O[C@H]2C[C@](C)(N)[C@H](O)[C@H](C)O2)Oc2ccc(cc2Cl)[C@H]1O [Vancomycin, reference compound] | – | – | – | – | – | – | – | – | 0.2 µg/mL (≈ 0.138 µM) | 0.4 µg/mL (≈ 0.276 µM) | > 50 µg/mL | > 50 µg/mL | 0.4 µg/mL (≈ 0.276 µM) |
